{"source": "ChEMBL document CHEMBL4138253", "about": "“Synthesis and Biological Evaluation of a Series of Bile Acid Derivatives as FXR Agonists for Treatment of NASH” (ACS Med Chem Lett, 2017)", "key": {"[1]": {"assay": "Drug level in C57BL/6 mouse liver at 2 mg/kg, po administered as single cassette dose via gavage measured at 0.5 hrs post dose by LC-MS/MS analysis", "type": "ADME, organism-based", "conditions": "in vivo; call rule not given here"}, "[2]": {"assay": "Drug level in C57BL/6 mouse liver at 2 mg/kg, po administered as single cassette dose via gavage measured at 3 hrs post dose by LC-MS/MS analysis", "type": "ADME, organism-based", "conditions": "in vivo"}, "[3]": {"assay": "Ratio of drug level in liver to plasma in C57BL/6 mouse at 2 mg/kg, po administered as single cassette dose via gavage measured at 0.5 hrs post dose", "type": "ADME, organism-based"}, "[4]": {"assay": "Ratio of drug level in liver to plasma in C57BL/6 mouse at 2 mg/kg, po administered as single cassette dose via gavage measured at 3 hrs post dose", "type": "ADME, organism-based"}, "[5]": {"target": "T1, Bile acid receptor (Homo sapiens, UniProt Q96RI1)", "T1 sequence (Q96RI1 whole entry)": "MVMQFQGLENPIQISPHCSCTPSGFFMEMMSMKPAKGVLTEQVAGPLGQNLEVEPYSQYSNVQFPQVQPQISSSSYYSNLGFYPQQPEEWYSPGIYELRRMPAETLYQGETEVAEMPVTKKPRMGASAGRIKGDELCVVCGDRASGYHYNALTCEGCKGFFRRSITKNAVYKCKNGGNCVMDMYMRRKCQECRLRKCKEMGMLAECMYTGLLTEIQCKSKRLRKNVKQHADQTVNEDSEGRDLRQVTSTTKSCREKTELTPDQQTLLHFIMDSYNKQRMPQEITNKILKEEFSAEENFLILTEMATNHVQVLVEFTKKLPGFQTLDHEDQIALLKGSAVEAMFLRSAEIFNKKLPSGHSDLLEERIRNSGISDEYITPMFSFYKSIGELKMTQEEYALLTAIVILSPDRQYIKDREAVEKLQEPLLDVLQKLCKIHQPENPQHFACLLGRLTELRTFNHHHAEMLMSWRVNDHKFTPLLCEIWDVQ", "assay": "Agonist activity at recombinant human GST-tagged FXR LBD (193 to 472 residues) expressed in baculovirus-infected insect cells assessed as recruitment of biotinylated SRC1 peptide measured after 1 hr by Alphascreen assay"}, "[6]": {"target": "T2, G-protein coupled bile acid receptor 1 (Homo sapiens, UniProt Q8TDU6)", "T2 sequence (Q8TDU6 whole entry)": "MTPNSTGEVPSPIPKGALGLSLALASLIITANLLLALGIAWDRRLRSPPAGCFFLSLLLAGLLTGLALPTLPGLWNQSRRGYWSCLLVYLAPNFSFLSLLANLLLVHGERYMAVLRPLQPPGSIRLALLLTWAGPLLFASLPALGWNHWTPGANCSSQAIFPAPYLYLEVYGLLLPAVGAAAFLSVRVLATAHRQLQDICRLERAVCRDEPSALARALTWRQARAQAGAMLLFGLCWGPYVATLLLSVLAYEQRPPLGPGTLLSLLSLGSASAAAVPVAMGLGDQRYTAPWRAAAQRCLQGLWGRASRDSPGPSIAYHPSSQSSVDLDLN", "assay": "Agonist activity at human TGR5 expressed in HEK293 cells assessed as increase in intracellular cAMP level after 1 hr by TR-FRET assay", "type": "functional, cell-based"}, "[7]": {"assay": "Drug level in C57BL/6 mouse plasma at 2 mg/kg, po administered as single dose via gavage measured at 0.5 hrs post dose by LC-MS/MS analysis", "type": "ADME, organism-based"}, "[8]": {"assay": "Drug level in C57BL/6 mouse plasma at 2 mg/kg, po administered as single cassette dose via gavage measured at 3 hrs post dose by LC-MS/MS analysis", "type": "ADME, organism-based"}, "[9]": {"species": "Homo sapiens", "assay": "Selectivity ratio of EC50 for recombinant human GST-tagged FXR LBD (193 to 472 residues) expressed in baculovirus-infected insect cells to EC50 for human TGR5 expressed in HEK293 cells"}, "[10]": {"target": "T3, Bile acid receptor (Homo sapiens) (UniProt Q96RI1)", "T3 sequence (whole entry)": "T1 sequence (Q96RI1 whole entry)", "assay": "Agonist activity at recombinant human GST-tagged FXR LBD (193 to 472 residues) expressed in baculovirus-infected insect cells assessed as recruitment of biotinylated SRC1 peptide measured after 1 hr by Alphascreen assay relative to CDCA"}, "[11]": {"assay": "Drug level in C57BL/6 mouse liver at 10 mg/kg, po administered as single dose via gavage measured at 3 hrs post dose by LC-MS/MS analysis", "type": "ADME, organism-based", "conditions": "in vivo"}, "[12]": {"assay": "Drug level in C57BL/6 mouse plasma at 10 mg/kg, po administered as single dose via gavage measured at 3 hrs post dose by LC-MS/MS analysis", "type": "ADME, organism-based"}, "[13]": {"assay": "Tmax in C57BL/6 mouse at 10 mg/kg, po administered via gavage", "type": "ADME, organism-based", "conditions": "in vivo"}, "[14]": {"tested_on": "Mus musculus", "assay": "Cmax in C57BL/6 mouse assessed as tauro-INT-747 level at 10 mg/kg, po administered via gavage", "type": "ADME, organism-based", "design": "dose 10 mg/kg, route oral", "conditions": "in vivo"}, "[15]": {"assay": "Cmax in C57BL/6 mouse at 10 mg/kg, po administered via gavage", "type": "ADME, organism-based", "design": "dose 10 mg/kg, route oral", "conditions": "in vivo"}, "[16]": {"tested_on": "Mus musculus", "assay": "Anti-hepatic steatosis activity in HFD/CCl4-induced non-alcoholic hepatic steatosis C57BL/6 mouse model assessed as reduction in triglyceride level at 30 mg/kg, po administered once daily via gavage for 28 days measured at post last dose by […] assay", "type": "ADME, organism-based", "conditions": "in vivo, 672 h"}, "[17]": {"assay": "AUC in C57BL/6 mouse at 10 mg/kg, po administered via gavage", "type": "ADME, organism-based", "conditions": "in vivo"}, "[18]": {"assay": "Drug level in C57BL/6 mouse liver at 10 mg/kg, po administered as single dose via gavage measured at 0.5 hrs post dose by LC-MS/MS analysis", "type": "ADME, organism-based", "conditions": "in vivo"}, "[19]": {"assay": "Drug level in C57BL/6 mouse plasma at 10 mg/kg, po administered as single dose via gavage measured at 0.5 hrs post dose by LC-MS/MS analysis", "type": "ADME, organism-based"}, "[20]": {"tested_on": "Mus musculus", "assay": "AUC in C57BL/6 mouse assessed as tauro-INT-747 level at 10 mg/kg, po administered via gavage", "type": "ADME, organism-based", "conditions": "in vivo"}, "[21]": {"tested_on": "Mus musculus", "assay": "Tmax in C57BL/6 mouse assessed as tauro-INT-747 level at 10 mg/kg, po administered via gavage", "type": "ADME, organism-based", "conditions": "in vivo"}, "[22]": {"tested_on": "Mus musculus", "assay": "Anti-hepatic steatosis activity in HFD/CCl4-induced non-alcoholic hepatic steatosis C57BL/6 mouse model assessed as reduction in liver fibrosis at 30 mg/kg, po administered once daily via gavage for 28 days measured at post last dose by sirus red staining based assay", "type": "ADME, organism-based", "conditions": "in vivo, 672 h"}, "[23]": {"tested_on": "Mus musculus", "assay": "Cmax in C57BL/6 mouse assessed as glyco-INT-747 level at 10 mg/kg, po administered via gavage", "type": "ADME, organism-based", "design": "dose 10 mg/kg, route oral", "conditions": "in vivo, BLD = below limit of detection"}, "[24]": {"tested_on": "Mus musculus", "assay": "AUC in C57BL/6 mouse assessed as glyco-INT-747 level at 10 mg/kg, po administered via gavage", "type": "ADME, organism-based", "conditions": "in vivo, BLD = below limit of detection"}, "[25]": {"tested_on": "Mus musculus", "assay": "Anti-hepatic steatosis activity in HFD/CCl4-induced non-alcoholic hepatic steatosis C57BL/6 mouse model assessed as reduction in hepatic steatosis score at 30 mg/kg, po administered once daily via gavage for 28 days measured at post last dose by hematoxylin-eosin staining based assay", "type": "ADME, organism-based", "conditions": "in vivo, 672 h"}}, "data": [{"smiles": "CC[C@H]1[C@@H](O)[C@@H]2[C@H](CC[C@]3(C)[C@@H]([C@H](C)CCc4nnn[nH]4)CC[C@@H]23)[C@@]2(C)CC[C@@H](O)C[C@@H]12", "values": [{"measurement": "Drug uptake", "setting": "[1]", "result": 5693, "unit": "nmol/kg"}, {"measurement": "Drug uptake", "setting": "[2]", "result": 1443, "unit": "nmol/kg"}, {"measurement": "Kp at 0.5 h", "setting": "[3]", "result": 7}, {"measurement": "Kp at 3 h", "setting": "[4]", "result": 76}, {"measurement": "EC50", "setting": "[5]", "result": 60, "unit": "nM"}, {"measurement": "EC50", "setting": "[6]", "result": 1770, "unit": "nM"}, {"measurement": "concentration at 0.5 h", "setting": "[7]", "result": 868, "unit": "nM"}, {"measurement": "concentration at 3 h", "setting": "[8]", "result": 19, "unit": "nM"}]}, {"smiles": "CC[C@H]1[C@@H](O)[C@@H]2[C@H](CC[C@]3(C)[C@@H]([C@H](C)CCNC(=O)C(=O)O)CC[C@@H]23)[C@@]2(C)CC[C@@H](O)C[C@@H]12", "values": [{"measurement": "Drug uptake", "setting": "[1]", "result": 277, "unit": "nmol/kg"}, {"measurement": "Ratio EC50", "setting": "[9]", "result": 12}, {"measurement": "Efficacy", "setting": "[10]", "result": 109, "unit": "%"}, {"measurement": "Drug uptake", "setting": "[2]", "result": 1363, "unit": "nmol/kg"}, {"measurement": "Kp at 0.5 h", "setting": "[3]", "result": 13}, {"measurement": "Kp at 3 h", "setting": "[4]", "result": 36}, {"measurement": "EC50", "setting": "[5]", "result": 20, "unit": "nM"}, {"measurement": "EC50", "setting": "[6]", "result": 240, "unit": "nM"}, {"measurement": "concentration at 0.5 h", "setting": "[7]", "result": 21, "unit": "nM"}, {"measurement": "concentration at 3 h", "setting": "[8]", "result": 38, "unit": "nM"}]}, {"smiles": "CC[C@H]1[C@@H](O)[C@@H]2[C@H](CC[C@]3(C)[C@@H]([C@H](C)CCC(=O)O)CC[C@@H]23)[C@@]2(C)CC[C@@H](O)C[C@@H]12", "note": "[OBETICHOLIC ACID]", "values": [{"measurement": "Drug uptake", "setting": "[11]", "result": 111, "unit": "nmol/kg"}, {"measurement": "concentration at 3 h", "setting": "[12]", "result": 10, "unit": "nM"}, {"measurement": "Tmax", "setting": "[13]", "result": 15, "unit": "min"}, {"measurement": "Cmax", "setting": "[14]", "result": 838, "unit": "nM"}, {"measurement": "Drug uptake", "setting": "[1]", "result": 711, "unit": "nmol/kg"}, {"measurement": "Cmax", "setting": "[15]", "result": 1540, "unit": "nM"}, {"measurement": "Activity", "setting": "[16]", "result": "Active"}, {"measurement": "AUC", "setting": "[17]", "result": 0.713, "unit": "µM·h"}, {"measurement": "Drug uptake", "setting": "[18]", "result": 1723, "unit": "nmol/kg"}, {"measurement": "concentration at 0.5 h", "setting": "[19]", "result": 478, "unit": "nM"}, {"measurement": "Drug uptake", "setting": "[2]", "result": 625, "unit": "nmol/kg"}, {"measurement": "AUC", "setting": "[20]", "result": 18.059, "unit": "µM·h"}, {"measurement": "Tmax", "setting": "[21]", "result": 480, "unit": "min"}, {"measurement": "Activity", "setting": "[22]", "result": "Active"}, {"measurement": "Cmax", "setting": "[23]", "result": "Bld"}, {"measurement": "AUC", "setting": "[24]", "result": "Bld"}, {"measurement": "concentration at 0.5 h", "setting": "[7]", "result": 151, "unit": "nM"}, {"measurement": "concentration at 3 h", "setting": "[8]", "result": 64, "unit": "nM"}, {"measurement": "Activity", "setting": "[25]", "result": "Active"}]}, {"smiles": "CC[C@H]1[C@@H](O)[C@@H]2[C@H](CC[C@]3(C)[C@@H]([C@H](C)CCc4cc(O)no4)CC[C@@H]23)[C@@]2(C)CC[C@@H](O)C[C@@H]12", "values": [{"measurement": "Drug uptake", "setting": "[1]", "result": 1896, "unit": "nmol/kg"}, {"measurement": "Ratio EC50", "setting": "[9]", "result": 17}, {"measurement": "Efficacy", "setting": "[10]", "result": 121, "unit": "%"}, {"measurement": "Drug uptake", "setting": "[2]", "result": 257, "unit": "nmol/kg"}, {"measurement": "Kp at 0.5 h", "setting": "[3]", "result": 44}, {"measurement": "Kp at 3 h", "setting": "[4]", "result": 43}, {"measurement": "EC50", "setting": "[5]", "result": 30, "unit": "nM"}, {"measurement": "EC50", "setting": "[6]", "result": 520, "unit": "nM"}, {"measurement": "concentration at 0.5 h", "setting": "[7]", "result": 43, "unit": "nM"}, {"measurement": "concentration at 3 h", "setting": "[8]", "result": 6, "unit": "nM"}]}]}
